From patent publication US20160361443A1, “Ultrasound Molecular Imaging With Targeted Biocompatible Microbubbles” (University of Pittsburgh - Of the Commonwealth System of …, priority 2015, published 2016)
“And” between values parts separate entries of the source, which are not always exact repeats. Equal values may be shown once. “Also recorded” adds a separate entry of the source. Where no end group is shown, it is not given here. Side-chain parts run from the residue outwards. microbubble albumin shell = not defined here

T1: E-selectin (Rattus norvegicus, UniProt P98105)
T1 construct: Immunofluorescent staining in all rats consistently confirmed microvascular E-selectin and ICAM-1 expression in postischemic myocardium; from tissue
T1 sequence (P98105 22-549): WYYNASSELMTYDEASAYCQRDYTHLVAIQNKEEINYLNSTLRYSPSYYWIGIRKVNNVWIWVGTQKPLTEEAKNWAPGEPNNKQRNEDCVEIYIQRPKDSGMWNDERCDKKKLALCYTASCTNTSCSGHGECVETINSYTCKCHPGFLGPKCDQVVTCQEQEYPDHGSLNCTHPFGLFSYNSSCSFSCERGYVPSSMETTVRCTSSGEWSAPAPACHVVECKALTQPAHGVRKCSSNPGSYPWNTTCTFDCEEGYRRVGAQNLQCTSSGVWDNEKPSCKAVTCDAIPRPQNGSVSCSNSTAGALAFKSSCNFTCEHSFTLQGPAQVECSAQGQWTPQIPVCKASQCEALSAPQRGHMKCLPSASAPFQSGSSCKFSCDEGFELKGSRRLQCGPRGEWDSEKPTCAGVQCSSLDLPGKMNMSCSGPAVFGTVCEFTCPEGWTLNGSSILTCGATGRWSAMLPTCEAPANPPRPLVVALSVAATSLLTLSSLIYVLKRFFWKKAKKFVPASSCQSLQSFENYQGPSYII

T2: human E-selectin on TNFα-activated HUVEC cells (human, UniProt P16581 22-610)
T2 construct: whole, on cells
T2 sequence (looked up): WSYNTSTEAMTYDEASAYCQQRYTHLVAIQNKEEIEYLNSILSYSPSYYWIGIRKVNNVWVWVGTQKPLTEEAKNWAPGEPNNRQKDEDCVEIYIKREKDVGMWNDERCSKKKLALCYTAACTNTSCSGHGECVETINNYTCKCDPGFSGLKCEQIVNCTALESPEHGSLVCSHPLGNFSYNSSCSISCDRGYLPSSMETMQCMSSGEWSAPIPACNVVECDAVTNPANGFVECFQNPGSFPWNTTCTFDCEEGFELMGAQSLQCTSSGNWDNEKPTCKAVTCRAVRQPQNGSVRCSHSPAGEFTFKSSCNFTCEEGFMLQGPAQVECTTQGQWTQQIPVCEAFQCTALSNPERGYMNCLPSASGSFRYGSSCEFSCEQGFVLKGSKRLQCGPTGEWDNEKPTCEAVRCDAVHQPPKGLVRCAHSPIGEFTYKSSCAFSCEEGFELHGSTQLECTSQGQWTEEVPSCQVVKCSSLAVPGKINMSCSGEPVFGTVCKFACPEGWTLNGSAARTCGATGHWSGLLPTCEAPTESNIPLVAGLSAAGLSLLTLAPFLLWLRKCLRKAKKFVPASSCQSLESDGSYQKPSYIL


Experiments:
[1] = system: Rat heart microvascular ECs; experiment: Parallel plate perfusion chamber, MB adhesion to cultured endothelial cells; assay type: cell-based; conditions: for MB adhesion to inflamed (activated) ECs: IL-1b-activated ECs; for MB adhesion to inflamed (activated) ECs / MB adhesion to noninflamed (normal) ECs: 5×10^6 MB in 1 mL, wall shear rate 200 s-1; for MB adhesion to activated versus normal ECs (in words): in vitro flow chamber
Procedure: (§1) Targeted biodegradable polymer MB (3.4±1.3μm) were prepared bearing a 12-mer synthetic peptide on the surface with specific E-selectin affinity (MBESEL). See, FIG. 7. Control MB had scrambled peptide (MBCTL) or non-specific IgG (MBIgG). MB adhesion to cultured rat endothelial cells (EC) was assessed in a parallel plate flow system (n=3/condition). Intravital microscopy of rat cremaster microcirculation was performed after i.v. injection of each MB type under basal or activated conditions (scrotal TNF 5μg) (n=3 rats/condition). To determine if binding events could be imaged, 6 rats had 15 min coronary artery occlusion. After 4 hrs reflow, each rat received separate i.v. boluses of MBESEL, MBCTL, and MBIgG. Non-linear echo imaging was performed 3 and 3.5 min later. Videointensity (VI) differences between the 2 time points was attributed to target-specific signal.
Cultured rat heart microvessel endothelial cells were placed on glass cover slips. The cells were then stimulated with IL-1β (2 ng/ml) for 4 hrs and then perfused with 1 mL microbubbles (5×10^6 /mL)-MBE-SEL or MBCTL. These microbubbles were then subjected to a wall shear rate of 200 sec-1. See, FIG. 8. 20 random fields (n=3) were assessed. […] FIGS. 9A and 9B.
A parallel plate perfusion chamber was used to quantify MB adhesion to cultured endothelial cells (ECs).12 Rat heart microvascular ECs (VEC Technologies, Rensselaer, N.Y.) were grown to confluence on 25 mm 3 75 mm glass coverslips. Cells were incubated for 5 hours with 5 ng/mL interleukin-1b (Sigma-Aldrich, St. Louis, Mo.) to cause activation. Coverslips with normal or IL-1b-activated ECs ([…]; 3/condition) were mounted in the chamber and perfused with one of the three MB species (5×10^6 MB in 1 mL culture medium) at a wall shear rate of 200 s-1, followed by an additional 3 mL of plain culture medium. The chamber was then mounted on a microscope (Nikon TE200) and 20 random bright-field images (3 100) of the ECs were captured (ORCA285, Hamamatsu, Bridgewater, N.J.). The mean number of attached MBs/ECs was counted offline.

[2] = system: rat cremaster muscle microcirculation; experiment: Intravital microscopy of MB adhesion in vivo; conditions: for MB adhesion to inflamed microcirculation: TNF-a 5 μg intrascrotal; for MB adhesion to normal or inflamed microcirculation (in words): basal or TNF-a activated
Procedure: as §1
An intravital microscopy of rat cremaster muscle microcirculation was performed after intravenous injection of 1×10^8 MBE-SEL or MBCTL (n=3 per condition). Non-inflamed: 4 hrs after intrascrotal injection of saline. Inflamed : 4 hrs after intrascrotal injection of TNF-α (5 μg). Real-time images were captured and microbubble adhesion was quantified in venules at 5 minutes after microbubble injection in 20 random fields. See, FIGS. 10A and 10B.
Microscopy of the rat cremaster muscle microcirculation was used for real-time visualization of MB adhesion in vivo. Sprague Dawley rats (100-120 g) received intrascrotal injection of either tumor necrosis factor a (n=9, 5 μg, Thermo Scientific, Waltham, Mass.) or 1 mL saline (n=9). Four hours later, the cremaster muscle was exteriorized and mounted on an inverted fluorescent microscope (Nikon TE200). Each rat received one intravenous injection (1×10^8 MB) of either MBESEL or control MBs (MBCTL or MBIgG) in […], followed by a […] ([…], 3 rats per MB type/inflammatory status combination, total 6 groups). Five minutes after injection, bright-field microscopic imaging of 20 random fields was performed to identify microvessels, and epi-illumination fluorescent imaging was performed to identify MBs, followed by pentobarbital overdose. Images were analyzed offline for MB adhesion per field of view, defined as MB immobility lasting≧30 seconds.
(§2) All protocols were approved by the Institutional Animal Care and Use Committee at the University of Pittsburgh. […] (Sprague Dawley, Harlan Laboratories, Indianapolis, Ind.) were anesthetized with intraperitoneal sodium pentobarbital (50 mg/kg) and maintained with 1.5 to 2.0% inhaled isoflurane. Body temperature was maintained at 37° C. with a heating pad. The internal jugular vein was cannulated with a 20-gauge catheter for MB injection.

E-selectin = target: T1, E-selectin; experiment: Ultrasound molecular imaging in rat myocardial ischemia-reperfusion model; assay type: in vivo; conditions: for Contrast enhancement of postischemic myocardium (in words): 4 h after reperfusion, 3 min after MB injection
Procedure: as §1
An open chest rat model of myocardial ischemia-reperfusion (n=6) was performed where the left anterior descending coronary artery was occluded for 15 minutes then reperfused. See, FIG. 11. At 4 hrs of reflow, the rat received separate i.v. injections of MBE-SEL or MBCTL (2.5×10^7 MBs). Triggered ultrasound imaging (8 MHz, MI 0.6, Sequoia CPS, Siemens) was performed 3 min after injection, followed by 5 destruction frames (MI 1.9) and a second imaging frame (MI 0.6) at 3.5 minutes. The videointensity difference between the two imaging frames was attributed to microbubble adhesion. See, FIG. 12.
as §2
A previously described rat model of acute myocardial ischemia and reperfusion was used for UMI of E-selectin overexpression as a marker of ischemic memory.^3 Anesthetized rats (n=6, 150-200 g) were intubated and mechanically ventilated. A lateral thoracotomy was performed, and the left anterior descending (LAD) coronary artery was occluded for 15 minutes and then reperfused. After 4 hours of reflow, each rat received separate intravenous injections of MBESEL, MBCTL, and MBIgG in random order (2.5×10^7 MBs in […] followed by a […]), and ultrasound imaging was performed as described below.
Thereafter, high mechanical index (MI) burst pulses were sent to ensure that all adhered and freely circulating MBs were destroyed prior to any subsequent injection. Typically, subsequent injections were given 5 minutes after MBs could no longer be detected in the left ventricular cavity on ultrasound imaging. The MB dosage was empirically chosen based on pilot studies assessing myocardial enhancement from various doses. At the end of the experiment, the LAD coronary artery was reoccluded, nontargeted myocardial contrast echocardiography (MCE) using plain lipid MBs was performed to delineate the risk area, and the rat was euthanized using pentobarbital overdose. Open-chest MCE in the short-axis view was performed using a contrast-specific imaging mode combining phase and amplitude modulation of the transmit signal (Cadence Contrast Pulse Sequencing, Sequoia 512, Siemens Ultrasound, Mountain View, Calif.) from a linear array transducer (15 L8) operating at 8 MHz. Probe position, dynamic range, gain settings, and focus were initially optimized and maintained constant. Ultrasound detection of bound MBs was performed using a previously described approach.^12,13 After 3 minutes to allow MB retention and washout of unbound MBs, end-systolic imaging was performed at an MI of 0.6, followed by an ultrasound burst pulse at MI of 1.9 to destroy the MBs and then end-systolic imaging 30 seconds later at MI 0.6. […]

[3] = target: T2, human E-selectin on TNFα-activated …; experiment: in vitro flow chamber, TNFα-activated HUVEC
[4] = 4 h, 1×10^8 MB i.v., 5 min after injection
[5] = 15 min LAD occlusion, 4 h reflow, 2.5×10^7 MBs i.v., 3 min after injection

Row | Molecule | Background-subtracted videointensity, postischemic (LAD) bed (E-selectin; [5]) | Background-subtracted videointensity, nonischemic bed (E-selectin; [5]) | Contrast enhancement of postischemic myocardium (in words) (E-selectin; listed as MBEsel) | Linear relationship, size of risk area vs size of region of persistent contrast enhancement (r) (E-selectin; y=0.98x-0.01) | binding result [3] | MB adhesion to inflamed (activated) ECs [1] | MB adhesion to activated versus normal ECs (in words) [1] | MB adhesion to activated versus normal ECs (in words) ([1]; listed as MBcontrl) | MB adhesion to noninflamed (normal) ECs [1] | MB adhesion to inflamed microcirculation [2, 4] | MB adhesion to normal or inflamed microcirculation (in words) [2] | Contrast enhancement of postischemic myocardium (in words) (E-selectin) | MB adhesion to activated versus normal ECs (in words) ([1]; listed as MBE-SEL) | MB adhesion to activated versus normal ECs (in words) ([1]; listed as MBEsel) | MB adhesion to inflamed microcirculation (Example II) ([2]; activated conditions (scrotal TNF 5μg)) | MB adhesion to non-inflamed microcirculation (Example II) ([2]; basal conditions) | MB adhesion to noninflamed microcirculation ([2]; saline intrascrotal, 4 h, 1×10^8 MB i.v., 5 min after injection)
1 | MBCTL: Control microbubbles linked to the 12-mer randomized AF10166 sequence (H2NWKLDTLDMIWQD-COOH) via biotin-streptavidin (also: linked to microbubbles via biotin-streptavidin, site not given here) [reference compound] | 4.0±1.0 dB and 4±1 dB |  |  |  |  | 4.1±0.6 MB/EC and 5±2 MB/EC | no difference | minimal adhesion | 4±1 MB/EC | 1.5±0.3 MBs/field | minimal attachment; also recorded: minimal adhesion | not seen |  |  |  |  | 
2 | MBESEL: Double-layer albumin/PDLLA microbubbles conjugated with E-selectin targeting peptide AF10166 via biotin-streptavidin bridging chemistry (DITWDQLWDLMK; also: biotinylated, site not given here, on microbubble via biotin-streptavidin) | 11.6±2.7 dB and 12±3 dB | 3.6±0.8 dB and 4±1 dB | higher | 0.92 |  | 17.4±1.8 MB/EC and 17±2 MB/EC |  |  | 5.9±3.4 MB/EC and 5±3 MB/EC | 4.8±1.2 MBs/field | adhesion to inflamed circulation (arrows) but not to control, noninflamed circulation | persistent contrast enhancement of the previously ischemic LAD coronary artery territory | superior binding | greater adhesion | 96±23 MB/field | 34±8 MB/field | 1.7±0.4 MBs/field

More lines, main results first:

Row | Background-subtracted videointensity, postischemic (LAD) bed (E-selectin; [5]) | Background-subtracted videointensity, nonischemic bed (E-selectin; [5]) | Contrast enhancement of postischemic myocardium (in words) (E-selectin; listed as MBEsel) | Linear relationship, size of risk area vs size of region of persistent contrast enhancement (r) (E-selectin; y=0.98x-0.01) | binding result [3] | Molecule | MB adhesion to inflamed (activated) ECs [1] | MB adhesion to activated versus normal ECs (in words) [1] | MB adhesion to activated versus normal ECs (in words) ([1]; listed as MBcontrl) | MB adhesion to noninflamed (normal) ECs [1] | MB adhesion to inflamed microcirculation [2, 4] | MB adhesion to normal or inflamed microcirculation (in words) [2] | Contrast enhancement of postischemic myocardium (in words) (E-selectin) | MB adhesion to activated versus normal ECs (in words) ([1]; listed as MBE-SEL) | MB adhesion to activated versus normal ECs (in words) ([1]; listed as MBEsel) | MB adhesion to inflamed microcirculation (Example II) ([2]; activated conditions (scrotal TNF 5μg)) | MB adhesion to non-inflamed microcirculation (Example II) ([2]; basal conditions) | MB adhesion to noninflamed microcirculation ([2]; saline intrascrotal, 4 h, 1×10^8 MB i.v., 5 min after injection)
3 |  |  |  |  | binds | DITWDQLWDLMK (also: biotinylated, site not given here, held on microbubble shell by biotin-streptavidin bridging, The peptide stood in the assays as many copies on a gas-filled microbubble (outer shell crosslinked human albumin, inner layer PDLLA); streptavidin and albumin shell are not; also called E-selectin targeted microbubble; MBEsel (biotin-streptavidin linker)) |  |  |  |  |  |  |  |  |  |  |  | 
4 |  |  |  |  | binds | C([BM(PEG)3-microbubble albumin shell])DITWDQLWDLMK (reading uncertain; also: thioether-conjugated to polymer/albumin microbubble, also called microbubble Esel(MAL); E-sel target MB (Mal)) |  |  |  |  |  |  |  |  |  |  |  | 
